# Experimental data: patent US5534554A, “Sucrose ester-C20 to C28 alcohol formulations” (priority 1994, dated 1996)
# “Also recorded” adds a separate entry of the source.
# Assays:
# HSV-specific receptors = experiment: Binding of herpes virus to HSV-specific receptors on target cells; assay type: cell-based
# From the text: (§1) The collective implications of the results of the studies are that the compound appears to interfere with one or more of the common pathways of viral entry into the cell and migration to the nucleus of infected target cells.
# wild-type HSV-2 = experiment: Plaque inhibition, wild-type HSV-2 in Vero cells; assay type: cell-based; details: FIG. 7, Panel A
# poliovirus = assay type: cell-based; details: nonenveloped virus
# Cytomegalovirus [1] = experiment: Antiviral activity against murine cytomegalovirus; assay type: cell-based, murine virus; details: Table 6, murine viruses
# [2] = system: recurrent herpes labialis; experiment: Study A: Phase 2 study in recurrent herpes labialis; assay type: in vivo, human; details: for time to healing, mean: 10% cream, all treatment episodes
# From the text: (§2) Two clinical efficacy studies have been completed. Study A was a randomized, double-blind, placebo-controlled Phase 2 study in 63 patients (male and female) with recurrent herpes labialis. All of the 31 n-docosanol 10% cream-treated patients in the herpes labialis study, Study A, completed their treatment; 2 of those 31 patients reported a burning or stinging sensation after application of the cream. […] Study B was a randomized, double-blind, placebo-controlled trial in 44 female patients with recurrent herpes genitalis.
# Sixty five patients (aged 18-60) took part in the Study A, 32 patients were initially randomized to receive 10% n-docosanol cream and 33 were initially randomized to receive placebo cream. Treatment was patient-initiated, and treatment initiation was defined as `early` if the treatment started at prodrome or erythema stage and as `late` if started at the papule stage or later. Two patients were excluded from the analysis. Of the 63 evaluable patients, 22 were entered into the cross-over phase of the study. In addition, 13 patients treated more than one episode with the same study medication. Therefore, a total of 98 herpes episodes--48 treated with 10% n-docosanol cream and 50 treated with placebo cream--were analyzed.
# prostate gland = details: oral, U.S. Pat. No. 4,186,211; cited from earlier work
# [3] = system: acyclovir-resistant HSV-2; experiment: Plaque inhibition, acyclovir-resistant HSV-2 in Vero cells; assay type: cell-based; details: FIG. 7, Panel B
# [4] = system: recurrent herpes genitalis; experiment: Study B: trial in female patients with recurrent herpes genitalis; assay type: in vivo, human; details: all patients
# From the text: as §2
# In the first clinical study, sixty female patients with recurrent herpes genitalis entered the study while symptom-free and not in a prodromal stage. […]
# Three pain analyses were conducted, based on patients' self-assessment of pain: time to sustained "no pain"; time to first "no pain"; and time to first reduction of pain. Time to sustained "no pain" was measured from the time of first pain at application to the time when 1 ) pain was scored as "no pain" for a minimum of 2 consecutive recordings; and 2) during the remainder of the episode, additional pain recordings were no more frequent and severe than 2 separated episodes of 2 consecutive recordings of "mild" pain. […] Time to first reduction in pain was measured from the time of first pain at application to the first time when a decrease in pain level was noted, relative to the previous assessment. […]
# Influenza A = experiment: Antiviral activity against influenza A; assay type: cell-based; details: Table 6, human viruses
# Vero cells = experiment: Metabolism of n-[14C]-docosanol in Vero cells (TLC); details: sodium azide and 2-deoxyglucose
# Friend Virus = experiment: Replication of Friend Virus in vitro in primary embryo fibroblast cultures; assay type: cell-based, murine
# Cytomegalovirus [5] = experiment: Antiviral activity against human cytomegalovirus; assay type: cell-based, human virus; details: Table 6, human viruses
# Human Herpesvirus-6 = experiment: Antiviral activity against human herpesvirus-6; assay type: cell-based
# LP-BM5 Virus = experiment: Antiviral activity against LP-BM5 virus; assay type: cell-based; details: Table 6, murine viruses
# HSV = experiment: Viral migration to the nucleus (HSV antigens by ELISA, ICP-4 by immunofluorescence); assay type: cell-based
# From the text: as §1
# Thus, the amounts of both HSV core and envelope protein antigens detectable by ELISA, as well as the numbers of infected cells expressing the intranuclear HSV-specific immediate-early protein, ICP-4, by immunofluorescence, are reduced by more than 80%. Finally, the replication of infectious virions as measured in secondary plaque assay cultures is markedly diminished by 99% or more in n-docosanol-treated cells.
structure (smiles),measurement,setting,value
CCCCCCCCCCCCCCCCCCCCCCO [n-docosanol],effect on viral binding to receptors,HSV-specific receptors,does not interfere with binding of herpes virus; also recorded: no effect
same,inhibition of plaque formation,wild-type HSV-2,inhibit plaque formation by wild type HSV-2 equally
same,activity against poliovirus,poliovirus,no detectable activity
same,susceptibility to antiviral activity: Cytomegalovirus,Cytomegalovirus [1],susceptible
same,"time to healing, mean",[2]; all treatments,5.7 days
same,"time to healing, mean",[2]; early treatment,3.4 days
same,reduction in mean overall healing time versus placebo,"[2]; all 98 episodes, P=0.02",1.6 days
same,reduction in mean healing time,"[2]; all episodes, early treatment, P=0.05",3.3 days
same,"difference in healing time, late treatment","[2]; cross-over portion, P=0.03",significant difference in favor of n-docosanol
same,treatment of enlargement of the prostate gland,prostate gland,therapeutically effective
same,inhibition of acyclovir-resistant HSV-2 mutant,[3],very clearly susceptible
same,average healing time based on patient ratings,"[4]; 10% cream, placebo 4.5",5.6 days
same,difference in mean time to healing versus placebo,[4]; p=0.2703,no statistically significant difference
same,susceptibility to antiviral activity: Influenza A,Influenza A,susceptible
same,reduction of metabolic conversion into polar metabolites by energy poisons,Vero cells,80%
same,susceptibility to antiviral activity: Friend Leukemia Virus,"Friend Virus; Table 6, murine viruses",susceptible
same,activity against replication of Friend Virus in vitro,Friend Virus; primary embryo fibroblast cultures,very potent activity
same,susceptibility to antiviral activity: Cytomegalovirus,Cytomegalovirus [5],susceptible
same,inhibition of in vitro replication of human herpes virus 6,Human Herpesvirus-6,inhibits in vitro replication
same,susceptibility to antiviral activity: Human Herpesvirus-6,"Human Herpesvirus-6; Table 6, human viruses",susceptible
same,susceptibility to antiviral activity: LP-BM5 Virus,LP-BM5 Virus,susceptible
same,viral migration to the cell nucleus,HSV,significantly inhibited; also recorded: substantially blocked
same,reduction of HSV core protein antigen,HSV; ELISA,more than 80%
same,reduction of HSV envelope protein antigen,HSV; ELISA,more than 80%
same,reduction of number of infected cells expressing ICP-4,HSV; immunofluorescence,more than 80%
